Measurements: patent publication US10766873B2, “Zuclopenthixol hydrochloride derivatives and Ebselen derivatives as ErbB2 inhibitors” (Centre National de la Recherche Scientifique (CNRS), priority 2016, dated 2020)

What was measured:
[1] = biological target: T1, FERM/ErbB2 interaction (Ezrin FERM domain / juxtamembrane ErbB2 peptide) (Homo sapiens, UniProt P04626); assay: AlphaScreen competition assay, FERM/ErbB2 interaction; type: binding; details: 1 h
T1 construct: made in house
Source text: (§1) To validate that the Zuclopenthixol hydrochloride (ZU) and its derivatives interact with the juxtamembrane domain of ErbB2, we first analyzed in AlphaScreen® their efficiency to inhibit FERM/ErbB2 interaction in a dose-dependent manner and determined IC50 value. Furthermore, to test the selectivity of those compounds, we tested their ability to disrupt the interaction between the FERM domain and the known ERM binding motif contained in the juxtamembrane region of CD44 as a control.
AlphaScreen® technology was used to assess the interaction between the Ezrin binding motif (EBM) contained in the juxtamembrane portions of ErbB2 or CD44 with the Ezrin FERM domain. For this purpose the Ezrin FERM domain in fusion with Glutathione-S-Transferase (GST) has been coupled to GSH-coated acceptor beads. […] The AlphaScreen® reagents (Glutathione-coated Acceptor beads and streptavidin-coated Donor beads) were obtained from PerkinElmer.
The reaction was performed using white 384-well Optiplates (PerkinElmer, Whalham, Mass., USA) in 20 μl (total reaction volume) in a reaction buffer containing PBS, pH 7.4, 5 mM MgCl2 and 0.02% CHAPS. […] 10 μl of a mix solution containing 20 μg/ml Glutathione-coated Acceptor beads and 20 μg/ml streptavidin-coated Donor beads was then added to the wells and incubation was further proceeded for 40 min or overnight in the dark and at room temperature. Light signal was detected with the EnVision® multilabel plate reader (PerkinElmer). All experiments involving AlphaScreen® beads were performed under subdued lighting.

[2] = biological target: T2, FERM/CD44 interaction (Homo sapiens, UniProt P16070); assay: AlphaScreen counter screen, FERM/CD44 interaction; type: binding; details: 1 h
T2 construct: the juxtamembrane region of CD44 (biotin-[…]); made in house
Source text: as §1
AlphaScreen® technology was used to assess the interaction between the Ezrin binding motif (EBM) contained in the juxtamembrane portions of ErbB2 or CD44 with the Ezrin FERM domain. For this purpose the Ezrin FERM domain in fusion with Glutathione-S-Transferase (GST) has been coupled to GSH-coated acceptor beads. Biotinylated ErbB2 peptide encoding the Ezrin binding motif (amino acid 674 to 689: biotin-[…], 26 aa) or the juxtamembrane region of CD44 (biotin-[…]), for the counter screen have been synthesized and coupled to streptavidin-covered donor beads. […]
The reaction was performed using white 384-well Optiplates (PerkinElmer, Whalham, Mass., USA) in 20 μl (total reaction volume) in a reaction buffer containing PBS, pH 7.4, 5 mM MgCl2 and 0.02% CHAPS. […] Light signal was detected with the EnVision® multilabel plate reader (PerkinElmer). […]

[3] = tested on: MCF7; assay: MTT cell proliferation, MCF7; type: cell-based; details: 10 μM
Procedure: (§2) We then analyzed the ability of ZU and EB1 and their derivatives to decrease the ErbB2-dependent cell proliferation.
(§3) SKBR3, BT474, MCF-7, MDA-MB-231 and HBMEC cells were treated with the compounds as indicated, and cell proliferation was determined each day during 3 days using an MTT assay. Non treated cells were included as a negative control.

[4] = tested on: MDA-MB-231; assay: MTT cell proliferation, MDA-MB-231; type: cell-based; details: 10 μM
Procedure: as §2, §3
The ErbB2-overexpressing gastric cancer cell line N87 and MDAMB-231, a non ErbB2-overexpressing breast cancer cell line were treated with 3, 5 or 7 μM of ZU and cell proliferation was determined each day during 3 days using an MTT assay. Non treated cells were included as a negative control.
The ErbB2-overexpressing ovarian cancer cell line SKOV3 and MDAMB-231, a non ErbB2-overexpressing breast cancer cell line were treated with 3, 5 or 7 μM of ZU and cell proliferation was determined each day during 3 days using an MTT assay. Non treated cells were included as a negative control.

[5] = tested on: BT474; assay: Soft agar colony formation, BT474; type: cell-based, human; details: 5 or 10 μM, 6 weeks
Procedure: A bottom layer of 0.8% agarose in DMEM supplemented with 20% SVF and penicillin/streptomycin was added to 24 well plates before seeding 25.10^3 SKBR3 or BT474 cells/well in a 0.6% agarose top layer. Cells were left untreated or treated with 5 or 10 μM ZU or EB1 or 5 μM AG1478 (a non-specific ErbB2 kinase inhibitor) as a positive control. Treatments were renewed 3 times a week. After 6 weeks, the number of colonies and their size were quantified using image J software. The colony formation is illustrated for each condition. Data are presented as mean±SEM.

[6] = tested on: EGFR/ErBB2 or ErbB3/ErbB2 heterodimers-dependent signalling pathways; assay: Ligand-dependent ErbB2 activation (EGF or HRG) in HBMECs, western blot; type: cell-based; details: pre-treatment 1 h or 24 h
Procedure: In physiological conditions, ErbB2 activation occurs in heterodimer with the other ErbB family members, such as the EGFR in response to EGF stimulation or ErbB3 in response to heregulin (HRG) stimulation. We therefore addressed whether ZU, EB1 and their derivatives also affected the ligand-dependent physiological ErbB2 activation.
16 h-starved HBMECs cells were pre-treated or not for 1 h or 24 h with ZU, […] and their derivatives or AG1478 before EGF (50 ng/mL) or HRG1β (100 ng/mL) stimulation for 5 minutes. The activation of EGFR/ErBB2 or ErbB3/ErbB2 heterodimers-dependent signalling pathways was then analysed by western blot experiments using pAkt, Akt, pERK, ERK or 4G10 antibodies.

[7] = tested on: V777L ErbB2-transfected cells; assay: MTT cell proliferation, V777L ErbB2-transfected HBMEC; type: cell-based; details: day 3
Procedure: The WT, V777L or V842I ErbB2-transfected cells were treated with 5 or 10 μM of ZU and cell proliferation was determined each day during 3 days using an MTT assay. Non transfected cells were included as a negative control.
The WT, V777L or V842I ErbB2-transfected cells were treated with 5 or 10 μM of EB1 and cell proliferation was determined each day during 3 days using an MTT assay. Non transfected cells were included as a negative control.

O=C1c2ccccc2[Se](=O)N1c1ccccc1 (centres unmarked) [EB1, Ebselen oxide]
inhibition of FERM/ErbB2 interaction [1]: 43% | effect on FERM/CD44 interaction [2]: without significantly altering FERM/CD44 interaction at low doses | effect on MCF7 proliferation (in words) [3]: without any effect | effect on MDA-MB-231 proliferation (in words) [4]: without any effect | anchorage-independent growth of BT474 (in words) [5]: inhibited the anchorage-independent growth | ligand-dependent ErbB2 activation induced by EGF or HRG stimulation (in words) [6]: absence of inhibition | decrease of the proliferation of V777L transfected HBMEC ([7]; 5 μM): 70% | decrease of the proliferation of V777L transfected HBMEC ([7]; 10 μM): 85%
